Experimental findings from US6528456B2, “Herbicidal 2-pyrazolyl-6-aryloxypyri(mi)dines” (BASF Aktiengesellschaft, priority 1999, dated 2003) are described below.

Holding throughout (type): in vivo
For one series, the system named is Matricaria inodora. Description: Pre-emergence test. The settings on record: 3 weeks after treatment. Here is the method: (§1) To evaluate their herbicidal activity, compounds according to the invention are tested using a representative range of plants: MATIN Matricaria inodora The pre-emergence tests involve spraying a liquid formulation of the compound onto the soil in which the seeds of the plant species mentioned above has recently been sown. The soil used in the tests is a prepared horticultural loam. The formulations used in the tests are prepared from solutions of the test compounds in acetone containing 0.4% by weight of an alkylphenol/ethylene oxide condensate available under the trade mark TRITON X-155. These acetone solutions are diluted with water and the resulting formulations applied at dosage levels corresponding to 0.025 kg, 0.100 kg or 0.400 kg of active material per hectare in a volume equivalent to 900 litres per hectare. In these tests untreated sown soil are used as controls. From 2 to 4 weeks after treatment, the tests are terminated and each pot is examined and rated according to the rating system set forth below: [table]

The test system of another series is Zea mays. Nature of the series: Pre-emergence test. To be noted: 3 weeks after treatment. As for the experimental part:
as §1, with “ZEAMX Zea mays” for “MATIN Matricaria inodora”

For a further series, the system named is soybeans, wheat. Nature of the series: Crop selectivity in pre- and post-emergence application. To be noted: dose of 0.1 kg/ha. Here is the method:
(§2) The pre-emergence tests involve spraying a liquid formulation of the compound onto the soil in which the seeds of the plant species mentioned above has recently been sown. The soil used in the tests is a prepared horticultural loam. The formulations used in the tests are prepared from solutions of the test compounds in acetone containing 0.4% by weight of an alkylphenol/ethylene oxide condensate available under the trade mark TRITON X-155. These acetone solutions are diluted with water and the resulting formulations applied at dosage levels corresponding to 0.025 kg, 0.100 kg or 0.400 kg of active material per hectare in a volume equivalent to 900 litres per hectare. In these tests untreated sown soil are used as controls. […] These acetone solutions are diluted with water and the resulting formulations applied at dosage levels equivalent of about 0.1 to 0. 4 kg per hectare of test compound per pot. After spraying the plants are placed on greenhouse benches and are cared for in the usual manner, commensurate with conventional greenhouse practices. From 2 to 4 weeks after treatment, the seedling plants are examined and rated according to the rating system provided above.

The subject of the next series is Ipomoea hederacea. Nature of the series: Pre-emergence test. The settings on record: 3 weeks after treatment. Here is the method: as §1, with “IPHOE Ipomoea hederacea” for “MATIN Matricaria inodora”
Another series relates to weeds. Nature of the series: Overall weed control in pre- and post-emergence application. The settings on record: dose of 0.1 kg/ha. Here is the method: as §2
The next series concerns Abutilon theophrasti. Nature of the series: Post-emergence test. The settings on record: 2-4 weeks after treatment. As for the experimental part:
(§3) To evaluate their herbicidal activity, compounds according to the invention are tested using a representative range of plants: ABUTH Abutilon theophrasti [table] […] These acetone solutions are diluted with water and the resulting formulations applied at dosage levels equivalent of about 0.1 to 0. 4 kg per hectare of test compound per pot. After spraying the plants are placed on greenhouse benches and are cared for in the usual manner, commensurate with conventional greenhouse practices. From 2 to 4 weeks after treatment, the seedling plants are examined and rated according to the rating system provided above.

The next series deals with Alopecurus myosuroides. Nature of the series: Pre-emergence test. The settings on record: 3 weeks after treatment. Here is the method: as §1, with “ALOMY Alopecurus myosuroides” for “MATIN Matricaria inodora”
The subject of the next series is Stellaria media. Description: Post-emergence test. The settings on record: 2-4 weeks after treatment. As for the experimental part: as §3, with “STEME Stellaria media” for “ABUTH Abutilon theophrasti”

For `Cn1nc(C(F)(F)F)cc1Oc1cc(C#N)cc(-c2cc(C(F)(F)F)nn2C)n1` [Example 3, 4-Cyano-2-(1-methyl-3-trifluoromethylpyrazol-5-yloxy)-6-(1-methyl-3-trifluoromethylpyrazol-5-yl)pyridine], the MATIN herbicidal rating in the series on Matricaria inodora (0.025 kg/ha), in the series with Matricaria inodora (0.100 kg/ha) and in the series on Matricaria inodora (0.400 kg/ha) was 9 (9 - Complete kill) each time. Besides, the ZEAMX herbicidal rating in the series on Zea mays (0.025 kg/ha) is 3 (3 - Moderate effect); in the series on Zea mays (0.100 kg/ha), 3 (3 - Moderate effect); in the series on Zea mays (0.400 kg/ha) it was 5 (5 - Definite injury). Besides, the “tolerance in soybeans and wheat” value in the series with soybeans, wheat is given as “well tolerated”. Besides, the IPOHE herbicidal rating with Ipomoea hederacea (0.025 kg/ha) is given as 2 (2 - Slight effect); in the series on Ipomoea hederacea (0.100 kg/ha) it was 2 (2 - Slight effect); in the series on Ipomoea hederacea (0.400 kg/ha) it was 9 (9 - Complete kill). Moreover, in the series with weeds, the “overall levels of weed control” value is listed as “good overall levels of weed control”. The ABUTH herbicidal rating is on record as 4 (4 - Injury) in the series with Abutilon theophrasti (0.1 kg/ha) and 5 (5 - Definite injury) in the series with Abutilon theophrasti (0.4 kg/ha). The ALOMY herbicidal rating in the series with Alopecurus myosuroides (0.025 kg/ha) was 2 (2 - Slight effect); in the series with Alopecurus myosuroides (0.100 kg/ha), 3 (3 - Moderate effect); with Alopecurus myosuroides (0.400 kg/ha) it was 5 (5 - Definite injury).

Take `Cc1cc(Oc2cccc(C(F)(F)F)c2)nc(-c2cc(C(F)(F)F)nn2C)c1` [Example 63]: the MATIN herbicidal rating in the series on Matricaria inodora (0.100 kg/ha) is listed as 6 (6 - Herbicidal effect); with Matricaria inodora (0.400 kg/ha), 9 (9 - Complete kill). In addition, the ZEAMX herbicidal rating with Zea mays (0.025 kg/ha), with Zea mays (0.100 kg/ha) and with Zea mays (0.400 kg/ha) was 0 (0 - No effect) each time. The IPOHE herbicidal rating is 0 (0 - No effect) in the series on Ipomoea hederacea (0.025 kg/ha), 0 (0 - No effect) in the series with Ipomoea hederacea (0.100 kg/ha) and 3 (3 - Moderate effect) in the series with Ipomoea hederacea (0.400 kg/ha). The ABUTH herbicidal rating in the series on Abutilon theophrasti (0.1 kg/ha) and in the series on Abutilon theophrasti (0.4 kg/ha) was 4 (4 - Injury) in each case. In addition, the ALOMY herbicidal rating with Alopecurus myosuroides (0.025 kg/ha) was 0 (0 - No effect); in the series with Alopecurus myosuroides (0.100 kg/ha) it was 1 (1 - Trace effect); in the series on Alopecurus myosuroides (0.400 kg/ha), 5 (5 - Definite injury).

On to `Cc1cnc(-c2cc(C(F)(F)F)nn2C)nc1Oc1cc(C(F)(F)F)nn1C` [Example 4, 2-(1-Methyl-3-trifluoromethylpyrazol-5-yl)-6-(1-methyl-3-trifluoromethylpyrazol-5-yloxy)-5-methylpyrimidine], for which the MATIN herbicidal rating is recorded as 8 (8 - Approaching complete kill) in the series with Matricaria inodora (0.025 kg/ha), 8 (8 - Approaching complete kill) in the series on Matricaria inodora (0.100 kg/ha) and 9 (9 - Complete kill) in the series with Matricaria inodora (0.400 kg/ha). Besides, the results for the ZEAMX herbicidal rating in the series with Zea mays (0.025 kg/ha), with Zea mays (0.100 kg/ha) and with Zea mays (0.400 kg/ha) were 2 (2 - Slight effect), 2 (2 - Slight effect) and 3 (3 - Moderate effect), respectively. For the same compound, the “tolerance in soybeans and wheat” value with soybeans, wheat is “well tolerated”. Besides, the IPOHE herbicidal rating is reported as 4 (4 - Injury) with Ipomoea hederacea (0.025 kg/ha), 6 (6 - Herbicidal effect) in the series with Ipomoea hederacea (0.100 kg/ha) and 9 (9 - Complete kill) in the series on Ipomoea hederacea (0.400 kg/ha). For the same compound, the “overall levels of weed control” value with weeds is “good overall levels of weed control”. Besides, the STEME herbicidal rating was 5 (5 - Definite injury) with Stellaria media (0.1 kg/ha) and 6 (6 - Herbicidal effect) in the series on Stellaria media (0.4 kg/ha). The ABUTH herbicidal rating in the series on Abutilon theophrasti (0.1 kg/ha) is 6 (6 - Herbicidal effect); with Abutilon theophrasti (0.4 kg/ha) it was 7 (7 - Good herbicidal effect). Moreover, the ALOMY herbicidal rating in the series on Alopecurus myosuroides (0.025 kg/ha) is 2 (2 - Slight effect); in the series with Alopecurus myosuroides (0.100 kg/ha), 6 (6 - Herbicidal effect); with Alopecurus myosuroides (0.400 kg/ha) it was 8 (8 - Approaching complete kill).
